The term IC50 denotes the concentration that gives 50% inhibition.

The target in assay [1] is PI3Kα (p110[H1047R]/p85) kinase (Homo sapiens, UniProt P42336, H1047R). The assay is described as follows: PI3Kα (p110[H1047R]/p85) kinase ADP-Glo Assay. It counts as biochemical. The settings on record: 25 uM ATP; for selectivity: WT/H1047R: ADP-Glo Assay IC50 ratio. On the procedure: PI3Kα (p110[H1047R]/p85) kinase ADP-Glo Assay. Certain compounds disclosed herein were tested for inhibition of PI3Kα (p110[H1047R]/p85) kinase in assays based on the ADP-Glo™ Kinase Assay methodology. The assays were carried out in 384-well white plates in a reaction mixture containing PI3Kα (p110[H1047R]/p85) kinase, 25 µM ATP, 5.35 µg/ml PI(4,5)P2:PS Lipid Kinase Substrate and […] compound in buffer containing 50 mM HEPES pH7.5, 50 mM NaCl, 3 mM MgCl2, 0.0025% BSA and 2 mM DTT. PI3Kα (p110[H1047R]/p85) kinase was incubated with Lipid Kinase Substrate and compound for 30 minutes at room temperature and the reaction was initiated by the addition of ATP.
Sequence of PI3Kα (p110[H1047R]/p85) kinase (P42336 whole entry H1047R): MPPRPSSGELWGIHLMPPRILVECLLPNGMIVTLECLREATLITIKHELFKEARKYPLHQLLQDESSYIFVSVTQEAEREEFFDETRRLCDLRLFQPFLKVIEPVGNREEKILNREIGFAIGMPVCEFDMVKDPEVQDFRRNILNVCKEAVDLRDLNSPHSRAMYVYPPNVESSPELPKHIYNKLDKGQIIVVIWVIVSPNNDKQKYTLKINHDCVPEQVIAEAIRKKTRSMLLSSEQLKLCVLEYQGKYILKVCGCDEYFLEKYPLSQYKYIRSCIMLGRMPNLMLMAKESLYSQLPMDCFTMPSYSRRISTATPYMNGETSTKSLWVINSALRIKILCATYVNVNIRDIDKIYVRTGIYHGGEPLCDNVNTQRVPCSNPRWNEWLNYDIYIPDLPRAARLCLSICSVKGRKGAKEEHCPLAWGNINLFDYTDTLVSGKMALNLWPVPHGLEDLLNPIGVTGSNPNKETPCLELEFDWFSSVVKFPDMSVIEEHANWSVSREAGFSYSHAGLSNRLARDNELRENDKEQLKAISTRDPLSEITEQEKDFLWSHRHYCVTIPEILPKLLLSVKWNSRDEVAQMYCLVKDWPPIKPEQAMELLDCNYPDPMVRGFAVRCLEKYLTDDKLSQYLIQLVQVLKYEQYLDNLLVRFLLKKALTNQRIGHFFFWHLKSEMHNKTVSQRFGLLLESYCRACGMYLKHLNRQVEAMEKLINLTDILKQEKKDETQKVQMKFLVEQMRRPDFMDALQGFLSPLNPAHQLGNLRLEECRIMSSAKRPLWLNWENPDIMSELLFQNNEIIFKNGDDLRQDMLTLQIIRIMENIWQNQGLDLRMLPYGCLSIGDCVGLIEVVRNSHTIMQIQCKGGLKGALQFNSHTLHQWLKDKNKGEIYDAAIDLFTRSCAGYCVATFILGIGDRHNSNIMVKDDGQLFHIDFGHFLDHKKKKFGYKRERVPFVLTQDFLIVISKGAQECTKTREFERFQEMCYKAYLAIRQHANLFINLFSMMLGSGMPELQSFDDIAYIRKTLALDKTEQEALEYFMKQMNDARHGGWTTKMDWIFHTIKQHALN
Sequence of PI3Kα (p110[H1047R]/p85) kinase (P27986 whole entry partner): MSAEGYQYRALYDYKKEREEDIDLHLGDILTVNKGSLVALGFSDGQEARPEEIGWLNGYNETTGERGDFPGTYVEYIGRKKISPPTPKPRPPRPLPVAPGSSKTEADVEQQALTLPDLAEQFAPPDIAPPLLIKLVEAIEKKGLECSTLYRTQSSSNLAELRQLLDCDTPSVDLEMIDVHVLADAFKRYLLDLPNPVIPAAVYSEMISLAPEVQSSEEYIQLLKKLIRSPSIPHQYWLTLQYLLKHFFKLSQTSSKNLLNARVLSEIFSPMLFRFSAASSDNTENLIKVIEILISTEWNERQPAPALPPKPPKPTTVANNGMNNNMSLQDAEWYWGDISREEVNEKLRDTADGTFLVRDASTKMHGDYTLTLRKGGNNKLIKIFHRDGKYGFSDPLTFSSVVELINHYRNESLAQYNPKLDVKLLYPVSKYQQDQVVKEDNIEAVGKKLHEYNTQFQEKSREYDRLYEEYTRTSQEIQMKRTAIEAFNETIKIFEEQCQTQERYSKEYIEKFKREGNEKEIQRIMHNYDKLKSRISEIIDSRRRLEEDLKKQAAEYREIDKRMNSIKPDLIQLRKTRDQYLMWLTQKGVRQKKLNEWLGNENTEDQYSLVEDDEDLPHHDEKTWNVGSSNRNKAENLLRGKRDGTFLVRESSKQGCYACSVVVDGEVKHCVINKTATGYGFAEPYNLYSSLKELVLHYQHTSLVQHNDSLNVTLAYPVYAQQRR
After reaction at room temperature for 120 minutes, ADP-Glo™ reagents were added to terminate the kinase reaction and deplete the remaining ATP according to the manufacture's instruction (Promega Corporation). After incubation at room temperature for 1 hour, Kinase Detection Reagent (prepared by reconstituting the lyophilized Kinase Detection Substrate with Kinase Detection Buffer of the kit) was added to convert the ADP to ATP and to allow for the newly synthesized ATP to be measured using a luciferase/luciferin reaction. After incubation at room temperature for 0.5 hour, chemiluminescence signals were recorded on a PHERAstar FSX plate reader (BMG Labtech). The chemiluminescence generated in this assay correlates to the amount of ADP generated in the kinase assay, indicating kinase activity. […] The IC50 for each compound was derived from fitting the data to the four-parameter logistic equation by Dotmatics.
A general note: In ADP-Glo the light output rises with the ADP produced.

In assay [2] the test system is PI3Kα H1047R mutated cell line T-47D. Kind of assay: Phospho-AKT (Ser473) Inhibition Assay (HTRF), T-47D. The assay is classed as cell-based. To be noted: for IC50: Homo sapiens, T47D, T-47D, 1 hour treatment, read-out: p-AKT Inhibition assay (S473) IC50 T-47D; for Selectivity: SK-BR-3/T-47D (p-AKT): p-AKT (S473) IC50 ratio. On the procedure: (§1) Cell Culture Maintenance. The T-47D (ATCC, HTB-133) cell line was obtained from the American Type Culture Collection. Cells were maintained in RPMI1640 medium (Gibco, REF #22400105) supplemented with 10% Fetal Bovine Serum (Gibco, REF #10091148). Cultures were maintained in a humidified incubator at 37° C. under 5% CO2/95% air.
Phospho-AKT Inhibition Assay. HTRF Phospho-AKT (Ser473) detection kit (Cisbio, REF #64AKSPEH) was used in phosphor-AKT inhibition assay. For compound screening, PI3Kα H1047R mutated cell line T-47D and WT cell line SK-BR-3 cells were seeded at a density of 3×10^4 cells per well in 96 well plate (Costar, REF #3599) in 95 μL of assay medium (MEM medium (Gibco, REF #12561-056) with 1×NEAA (Gibco, REF #11140-050), 1 mM sodium pyruvate (Gibco, REF #11360-070), and 1 g/ml human insulin (Topscience, REF #T8221)), overnight. Compounds dissolved in 10 mM stock solutions in DMSO were serially diluted 1:3 in DMSO to generate an 11-point dilution series and plated using an INTEGRA ASSIST PLUS pipetting robot. A 20× intermediate compound dilution plate in RPMI1640 medium (200 M starting compound concentration in 2% DMSO) was then prepared. Five μL of intermediate serially diluted compounds were added to the cell plate to final concentrations ranging from […] to 0.1 nM in 0.1% DMSO. 0.1% DMSO alone was used to establish the maximum signal and GDC0077 at final concentration of 10 μM was used as a reference compound for minimum signal. After 1 hour treatment, removed medium and added 50 μL of supplemented lysis buffer (1×) immediately. Incubated for at least 30 minutes at room temperature under shaking. Transferred 16 μL of cell lysate from the 96-well cell-culture plate to a 384-white detection plate (PerkinElmer, Optiplate 384, 6007299). Added 4 μL of premixed antibody solutions prepared in the detection buffer. Incubated 4 hours at room temperature in dark. The plates were read on PHERAstar FSX Microplate reader (BMG LABTECH, Inc.) using standard HTRF settings.
Relative IC50 values were determined using luminescence units by calculating percent inhibition with respect to the in-plate “MIN” (GDC0077 reference control) and “MAX” (DMSO) controls. The data were analyzed using a 4-parameter nonlinear logistic equation (four-parameter logistic concentration-response curve): Y=bottom+[(top−bottom)/1+(X/IC50) slope] • where Y=% inhibition, X=concentration of inhibitor, bottom=minimum value of y attained by curve-fit, top=maximum value of y attained by curve-fit and slope=steepness of curve at the IC50.
(In TR-FRET formats the signal depends on donor and acceptor labels being close together.)

The test system of assay [3] is PI3Kα H1047R mutated cell line T-47D cells. Kind of assay: Cell Proliferation Assay (CellTiter-Glo), T-47D. The settings on record: for IC50: Homo sapiens, T47D, 72 h, T-47D, 3 days treatment; for Selectivity: SK-BR-3/T-47D (cell proliferation): cell proliferation IC50 ratio. The assay is classed as cell-based. The procedure: as §1
Cell Proliferation Assay. PI3Kα H1047R mutated cell line T-47D cells and WT cell line SK-BR-3 were seeded at a density of 3×10^3 cells per well in 96 well plate (Xinyou Biotechnology, 062096) in 95 μL of culture medium, overnight. Compounds dissolved in 10 mM stock solutions in DMSO were serially diluted 1:3 in DMSO to generate a 9-point dilution series and plated using an INTEGRA ASSIST Plus pipetting robot. A 20× intermediate compound dilution plate in RPMI1640 medium (200 M starting compound concentration in 2% DMSO) was then prepared. Five μL of intermediate serially diluted compounds were added to the cell plate to final concentrations ranging from […] to 1 nM in 0.1% DMSO. 0.1% DMSO alone was used to establish the maximum signal and medium without cells was for minimum signal. After 3 days treatment, equilibrated the plate and its contents at room temperature for approximately 30 minutes. Added 30 μL CellTiter-Glo® Reagent (Promega, REF #G7571) to each well. Then mixed contents for 5 min on plate shaker to induce cell lysis. Incubated at room temperature for 10 minutes to stabilize luminescent signal. The plates were read on PHERAstar FSX Microplate reader using standard luminescence settings.
Relative IC50 values were determined using luminescence units by calculating percent inhibition with respect to the in-plate “MIN” (medium only) and “MAX” (0.1% DMSO) controls. The data were analyzed using a 4-parameter nonlinear logistic equation (four-parameter logistic concentration-response curve): Y=bottom+[(top−bottom)/1+(X/IC50) slope] • where Y=% inhibition, X=concentration of inhibitor, bottom=minimum value of y attained by curve-fit, top=maximum value of y attained by curve-fit and slope=steepness of curve at the IC50.

With `Cc1cc(C(C)Nc2ccccc2C(=O)O)c2cc(-c3ccccc3)n(C)c(=O)c2c1` (stereo not drawn) [Example 1, 2-((1-(2,7-dimethyl-1-oxo-3-phenyl-1,2-dihydroisoquinolin-5-yl)ethyl)amino)benzoic acid], in assay [1], inhibition was half-maximal at 170 nM (IC50) and the “selectivity: WT/H1047R” value came out at 16.3. Further, in assay [2], the IC50 was determined as 43.5 nM and the “Selectivity: SK-BR-3/T-47D (p-AKT)” value stood at 48.6. In addition, in assay [3], the IC50 came out at 84.6 nM and the “Selectivity: SK-BR-3/T-47D (cell proliferation)” value is on record as above 118.

As for `Cc1cc(C(C)Nc2ccccc2C(=O)O)c2cc(-c3ccccc3C)n(C)c(=O)c2c1` (stereo not drawn) [Example 2, 2-((1-(2,7-dimethyl-1-oxo-3-(o-tolyl)-1,2-dihydroisoquinolin-5-yl)ethyl)amino)benzoic acid], in assay [1], 161 nM corresponded to half-maximal inhibition (IC50) and the “selectivity: WT/H1047R” value is given as 139.3. In assay [2], the IC50 turned out to be 66.3 nM and the “Selectivity: SK-BR-3/T-47D (p-AKT)” value worked out at 43.0. For the same molecule, in assay [3], the midpoint of inhibition, the IC50, lay at 1230 nM and the “Selectivity: SK-BR-3/T-47D (cell proliferation)” value is on record as above 8.2.

For the molecule `Cc1cc(C(C)Nc2ccccc2C(=O)O)c2cc(-c3cccc(C#N)c3)n(C)c(=O)c2c1` (stereo not drawn) [Example 3, 2-((1-(3-(3-cyanophenyl)-2,7-dimethyl-1-oxo-1,2-dihydroisoquinolin-5-yl)ethyl)amino)benzoic acid], in assay [1], the IC50 worked out at 671 nM and the “selectivity: WT/H1047R” value is 14.7. Moreover, in assay [2], the IC50 stood at 168 nM and the “Selectivity: SK-BR-3/T-47D (p-AKT)” value turned out to be 26.0. Further, in assay [3], half-maximal inhibition (IC50) was put at 143 nM and the “Selectivity: SK-BR-3/T-47D (cell proliferation)” value is above 70.

Take `Cc1cc(C(C)Nc2ccccc2C(=O)O)c2cc(-c3cccc(C(C)(C)C#N)c3)n(C)c(=O)c2c1` (stereo not drawn) [Example 5, 2-((1-(3-(3-(2-cyanopropan-2-yl)phenyl)-2,7-dimethyl-1-oxo-1,2-dihydroisoquinolin-5-yl)ethyl)amino)benzoic acid]: in assay [1], the IC50 came out at 375 nM and the “selectivity: WT/H1047R” value is 14.1. In assay [2], the IC50 was 135 nM and the “Selectivity: SK-BR-3/T-47D (p-AKT)” value is on record as 34.3. Further, in assay [3], the 50% inhibitory concentration (IC50) is 520 nM and the “Selectivity: SK-BR-3/T-47D (cell proliferation)” value is on record as above 19.

In the case of `Cc1cc(C(C)Nc2ccccc2C(=O)O)c2cc(-c3ccccc3F)n(C)c(=O)c2c1` (stereo not drawn) [Example 6, 2-((1-(3-(2-fluorophenyl)-2,7-dimethyl-1-oxo-1,2-dihydroisoquinolin-5-yl)ethyl)amino)benzoic acid], in assay [1], the IC50 was 162 nM and the “selectivity: WT/H1047R” value worked out at 17.8. In assay [2], the 50% inhibitory concentration (IC50) turned out to be 62.4 nM and the “Selectivity: SK-BR-3/T-47D (p-AKT)” value came out at 51.5. Further, in assay [3], the midpoint of inhibition, the IC50, lay at 326 nM and the “Selectivity: SK-BR-3/T-47D (cell proliferation)” value is above 31.

In the case of `Cc1cc(C(C)Nc2ccccc2C(=O)O)c2cc(-c3cccc(F)c3)n(C)c(=O)c2c1` (stereo not drawn) [Example 7, 2-((1-(3-(3-fluorophenyl)-2,7-dimethyl-1-oxo-1,2-dihydroisoquinolin-5-yl)ethyl)amino)benzoic acid], in assay [1], half-maximal inhibition (IC50) required 164 nM and the “selectivity: WT/H1047R” value is recorded as 15.3. In addition, in assay [2], the concentration for half-maximal inhibition (IC50) came to 53.9 nM and the “Selectivity: SK-BR-3/T-47D (p-AKT)” value came out at 34.5. Also, in assay [3], the concentration for half-maximal inhibition (IC50) was found to be 101 nM and the “Selectivity: SK-BR-3/T-47D (cell proliferation)” value is above 98.8.

Regarding `Cc1cc(C(C)Nc2ccccc2C(=O)O)c2cc(-c3ccc(F)cc3)n(C)c(=O)c2c1` (stereo not drawn) [Example 8, 2-((1-(3-(4-fluorophenyl)-2,7-dimethyl-1-oxo-1,2-dihydroisoquinolin-5-yl)ethyl)amino)benzoic acid], in assay [1], half-maximal inhibition (IC50) required 183 nM and the “selectivity: WT/H1047R” value is 32.6. In assay [2], the IC50 came out at 66.4 nM and the “Selectivity: SK-BR-3/T-47D (p-AKT)” value was determined as 37.7. In assay [3], the IC50 is 158 nM and the “Selectivity: SK-BR-3/T-47D (cell proliferation)” value is on record as above 63.

For the molecule `Cc1cc(C(C)Nc2ccccc2C(=O)O)c2cc(-c3ccc(F)c(F)c3)n(C)c(=O)c2c1` (stereo not drawn) [Example 9, 2-((1-(3-(3,4-difluorophenyl)-2,7-dimethyl-1-oxo-1,2-dihydroisoquinolin-5-yl)ethyl)amino)benzoic acid], in assay [1], inhibition was half-maximal at 187 nM (IC50) and the “selectivity: WT/H1047R” value was 14.5. In addition, in assay [2], the IC50 worked out at 70.9 nM and the “Selectivity: SK-BR-3/T-47D (p-AKT)” value was determined as 51.4. In assay [3], the half-maximal inhibitory concentration (IC50) came to 143 nM and the “Selectivity: SK-BR-3/T-47D (cell proliferation)” value was above 70.

For the molecule `Cc1cc(C(C)Nc2ccccc2C(=O)O)c2cc(-c3cc(F)cc(F)c3)n(C)c(=O)c2c1` (stereo not drawn) [Example 10, 2-((1-(3-(3,5-difluorophenyl)-2,7-dimethyl-1-oxo-1,2-dihydroisoquinolin-5-yl)ethyl)amino)benzoic acid], in assay [1], the IC50 was 224 nM and the “selectivity: WT/H1047R” value came to 36.1. For the same molecule, in assay [2], the IC50 stood at 82 nM and the “Selectivity: SK-BR-3/T-47D (p-AKT)” value is on record as 33.3. Moreover, in assay [3], the 50% inhibitory concentration (IC50) was found to be 128 nM and the “Selectivity: SK-BR-3/T-47D (cell proliferation)” value is listed as above 78.

Take `Cc1cc(C(C)Nc2ccccc2C(=O)O)c2cc(-c3ccc(F)cc3F)n(C)c(=O)c2c1` (stereo not drawn) [Example 11, 2-((1-(3-(2,4-difluorophenyl)-2,7-dimethyl-1-oxo-1,2-dihydroisoquinolin-5-yl)ethyl)amino)benzoic acid]: in assay [1], the IC50 was 210 nM and the “selectivity: WT/H1047R” value amounted to 100.2. Besides, in assay [2], the half-inhibitory concentration (IC50) was found to be 80.2 nM and the “Selectivity: SK-BR-3/T-47D (p-AKT)” value is on record as above 125. In assay [3], 490 nM corresponded to half-maximal inhibition (IC50) and the “Selectivity: SK-BR-3/T-47D (cell proliferation)” value was above 20.42.

For the origin of these results see patent publication US20260125346A1, “Isoquinolinone Derivatives and 4H-Quinolizinone Derivatives and Pharmaceutical Compositions Thereof for the Treatment of Disease” (BeOne Medicines I GmbH, priority 2023, published 2026).
